The test system of experiment [1] is relapsed/refractory myeloma patients. The following applies: thalidomide alone; cited from earlier work.
The test system of another experiment is U266B1. Briefly: multiple myeloma cell proliferation, U266B1. It counts as cell-based. The settings on record: U266B1, Human multiple myeloma. An excerpt: (§1) The effect that ezatiostat has on multiple myeloma proliferation is tabulated below (Table 1).
In another experiment the test system is RPMI-8226. Briefly: multiple myeloma cell proliferation, RPMI-8226. It counts as cell-based. The settings on record: RPMI-8226, Human multiple myeloma.
Source text: as §1

A further experiment concerns ARH77. The experiment can be described thus: multiple myeloma cell proliferation, ARH77. Format: cell-based. The following applies: ARH-77, ARH77, Human multiple myeloma.
Source text: as §1

In experiment [2] the test system is human RPMI8226 multiple myeloma cell. Briefly: combination with melphalan, inhibition of multiple myeloma cell proliferation. The following applies: added together with melphalan; RPMI8226 cells; FIG. 1. Format: cell-based.

For `O=C1CCC(N2C(=O)c3ccccc3C2=O)C(=O)N1` (centres unmarked) [Thalidomide, thalidomide], in experiment [1], the partial response rates result was “about 30 % of patients”.

The term IC50 denotes the concentration that inhibits the measured activity by half. A lower IC50 goes with greater potency in that assay. For `CCOC(=O)[C@@H](N)CCC(=O)N[C@@H](CSCc1ccccc1)C(=O)N[C@@H](C(=O)OCC)c1ccccc1` [ezatiostat], the IC50 in the experiment with U266B1 is 860 nM; in the experiment with RPMI-8226, 33 µM; in the experiment with ARH77, 2230 nM. In addition, the “synergy with melphalan in inhibiting cell proliferation” value in experiment [2] is on record as “demonstrated synergy with melphalan”.

The values are drawn from US20120251496A1, “EZATIOSTAT FOR TREATING MULTIPLE MYELOMA” (Telik, Inc., priority 2011, published 2012).
